Our source for the TGI values is PubChem BioAssay (NCI).

Among the test systems are MDA-N; EKVX NSCLC; DU-145 prostate; SW-620 colon; SK-MEL-28 melanoma; 786-0 renal; NCI-H226 lung; OVCAR-4 ovarian; SF-268 CNS; UO-31 renal; NCI-H522 lung; SF-295 CNS; RXF 393 renal; HCT-116 colon; HOP-62 NSCLC; A498 renal; MALME-3M melanoma; KM12 colon; CAKI-1 renal; SK-MEL-2 melanoma.
What all share (test): NCI-60 cell line screen, 48 h

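Grown in 96-well plates, cells were treated for 48 hours with each compound at five concentrations. Insufficient inhibition: endpoint recorded as highest concentration tested. TGI is the concentration that stops growth completely.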

On to `CCOC(=O)C(CCN1CCC2(CC1)C(=O)N(C)CN2c1ccccc1)C(=O)OCC`, for which the TGI with MDA-N, in the assay with EKVX NSCLC, with DU-145 prostate, with SW-620 colon, in the assay with SK-MEL-28 melanoma and in the assay with 786-0 renal was over 100 µM each time. Further, the TGI in the assay with NCI-H226 lung, with OVCAR-4 ovarian, in the assay with SF-268 CNS, with UO-31 renal, in the assay with NCI-H522 lung and in the assay with SF-295 CNS was over 100 µM in each case. For the same molecule, the TGI in the assay with RXF 393 renal, in the assay on HCT-116 colon, in the assay with HOP-62 NSCLC, in the assay with A498 renal, with MALME-3M melanoma and in the assay with KM12 colon was over 100 µM in each case. Further, the TGI in the assay on CAKI-1 renal and with SK-MEL-2 melanoma was over 100 µM in each case.

Turning to `CCOC(=O)Cc1ccc(Nc2nc3ccccc3nc2C(=O)OCC)cc1`, the TGI with MDA-N, in the assay with EKVX NSCLC, in the assay on DU-145 prostate, in the assay on SW-620 colon, in the assay on SK-MEL-28 melanoma and in the assay with 786-0 renal was over 100 µM in each case. Also, the TGI was over 100 µM in the assay with NCI-H226 lung; over 100 µM with OVCAR-4 ovarian; over 100 µM in the assay on SF-268 CNS; 41.3 µM in the assay on UO-31 renal; over 100 µM with NCI-H522 lung; over 100 µM with SF-295 CNS. Besides, the TGI with RXF 393 renal is 74.4 µM; in the assay on HCT-116 colon, over 100 µM; in the assay with HOP-62 NSCLC, over 100 µM; in the assay with A498 renal, 86.7 µM; with MALME-3M melanoma, over 100 µM; in the assay on KM12 colon it was over 100 µM. In addition, the TGI in the assay on CAKI-1 renal and with SK-MEL-2 melanoma was over 100 µM in each case.

As to `[N-]=[N+]=CC(=O)OC1Cc2ccccc2C1`, the TGI in the assay with MDA-N was over 100 µM; in the assay on EKVX NSCLC, over 100 µM; with DU-145 prostate it was over 84.2 µM; in the assay on SW-620 colon, over 100 µM; with SK-MEL-28 melanoma, over 100 µM; in the assay with 786-0 renal, over 100 µM. Moreover, the TGI in the assay with NCI-H226 lung is over 100 µM; with OVCAR-4 ovarian, over 100 µM; in the assay on SF-268 CNS, over 100 µM; with UO-31 renal it was 35.8 µM; in the assay with NCI-H522 lung, over 100 µM; in the assay on SF-295 CNS it was over 100 µM. Further, the TGI in the assay on RXF 393 renal, in the assay on HCT-116 colon, in the assay with HOP-62 NSCLC, in the assay on A498 renal, with MALME-3M melanoma and in the assay with KM12 colon was over 100 µM in each case. For the same molecule, the TGI in the assay on CAKI-1 renal is over 35.3 µM; with SK-MEL-2 melanoma, over 100 µM.

For the molecule `C=C1CC/C=C(\C)CCC[C@H](C)[C@@H](O)[C@@H]2OC(=O)C(=C)[C@@H]2C[C@H]1O`, the TGI with MDA-N was 35.9 µM; in the assay with EKVX NSCLC it was over 42.6 µM; in the assay with DU-145 prostate, 17.8 µM; with SW-620 colon it was over 32.4 µM; with SK-MEL-28 melanoma, 22.2 µM; in the assay with 786-0 renal, 18.6 µM. Further, the TGI in the assay on NCI-H226 lung came out at 11.5 µM; with OVCAR-4 ovarian, 51.7 µM; in the assay with SF-268 CNS, 23.1 µM; with UO-31 renal it was 19.2 µM; with NCI-H522 lung, 4.96 µM; with SF-295 CNS, 32.9 µM. For the same molecule, the TGI with RXF 393 renal was 22.2 µM; in the assay on HCT-116 colon, 30.5 µM; in the assay on HOP-62 NSCLC, 30.8 µM; with A498 renal, over 100 µM; in the assay on MALME-3M melanoma, 22.1 µM; in the assay with KM12 colon it was 29.9 µM. Further, the TGI with CAKI-1 renal came out at 17 µM; with SK-MEL-2 melanoma, 27 µM.

Consider `CC1(C)OC2C(O)C(CO)OC2(C(F)F)O1` (stereo not given), for which the TGI in the assay with MDA-N, in the assay on EKVX NSCLC, with DU-145 prostate, in the assay on SW-620 colon, in the assay on SK-MEL-28 melanoma and in the assay on 786-0 renal was over 100 µM throughout. Also, the TGI with NCI-H226 lung, in the assay on OVCAR-4 ovarian, in the assay with SF-268 CNS, with UO-31 renal, in the assay on NCI-H522 lung and in the assay on SF-295 CNS was over 100 µM throughout. Further, the TGI with RXF 393 renal, in the assay on HCT-116 colon, in the assay on HOP-62 NSCLC, in the assay on A498 renal, with MALME-3M melanoma and with KM12 colon was over 100 µM each time. For the same molecule, the TGI in the assay on CAKI-1 renal and in the assay with SK-MEL-2 melanoma was over 100 µM throughout.

In the case of `CC(Oc1ccc(Cl)cc1Cl)C(=O)NN1C(=O)CSC1c1ccccc1` (stereo not given), the TGI in the assay with MDA-N, with EKVX NSCLC, in the assay on DU-145 prostate, in the assay with SW-620 colon, in the assay on SK-MEL-28 melanoma and with 786-0 renal was over 100 µM in each case. Further, the TGI in the assay on NCI-H226 lung was 64.1 µM; with OVCAR-4 ovarian, over 100 µM; in the assay on SF-268 CNS it was over 100 µM; in the assay with UO-31 renal, over 100 µM; with NCI-H522 lung it was over 100 µM; in the assay with SF-295 CNS it was over 100 µM. Besides, the TGI with RXF 393 renal, in the assay with HCT-116 colon, in the assay on HOP-62 NSCLC, in the assay on A498 renal, in the assay on MALME-3M melanoma and in the assay on KM12 colon was over 100 µM throughout. The TGI was 40 µM with CAKI-1 renal and over 100 µM in the assay on SK-MEL-2 melanoma.

Take `COc1cc2c3c(c1OC)-c1cc4c(cc1CC3(C#N)N(C(=O)c1ccccc1)CC2)OCO4` (stereo not given): the TGI with MDA-N was over 100 µM; with EKVX NSCLC, over 100 µM; with DU-145 prostate, over 100 µM; with SW-620 colon, over 100 µM; in the assay with SK-MEL-28 melanoma it was over 100 µM; in the assay with 786-0 renal it was 57.7 µM. The TGI is 78.2 µM in the assay on NCI-H226 lung; 43 µM in the assay with OVCAR-4 ovarian; over 91 µM in the assay with SF-268 CNS; over 94.1 µM in the assay with UO-31 renal; 81.2 µM in the assay with NCI-H522 lung; 58.7 µM in the assay with SF-295 CNS. Also, the TGI with RXF 393 renal is 26.9 µM; with HCT-116 colon, over 87.2 µM; in the assay on HOP-62 NSCLC it was over 76.1 µM; with A498 renal, 82.3 µM; in the assay with MALME-3M melanoma it was 97.7 µM; with KM12 colon, over 100 µM. In addition, the TGI is over 81 µM in the assay on CAKI-1 renal and over 100 µM in the assay on SK-MEL-2 melanoma.
